Laboratory results from ChEMBL document CHEMBL4806967, “Heterocyclic kinase inhibitors and uses thereof” (2020).
The source made the active and inactive calls. The calls are words filed in the database; no cut-off is given here.

What was measured:
[1] = Toxicity in C57BL/6 mouse assessed as signs of intolerance by measuring tail pinch upto 100 mg/kg, gavage twice daily measured after 7 days; assay type: organism-based; details: in vivo, po, 168 h, time 7 day
[2] = Free drug concentration in mouse at 30 mg/kg, po measured after 24 hrs; assay type: ADME, organism-based; details: in vivo
[3] = Free drug concentration in mouse at 30 mg/kg, po measured after 7 hrs; assay type: ADME, organism-based; details: in vivo
[4] = Toxicity in C57BL/6 mouse assessed as signs of intolerance by measuring chromo-dacryorrhea upto 100 mg/kg, gavage twice daily measured after 7 days; assay type: organism-based; details: in vivo, po, 168 h, time 7 day
[5] = Toxicity in C57BL/6 mouse assessed as signs of intolerance by measuring change in vocalization upto 100 mg/kg, gavage twice daily measured after 7 days; assay type: organism-based; details: in vivo, po, 168 h, time 7 day
[6] = Toxicity in C57BL/6 mouse assessed as signs of intolerance by measuring change in lacrimation upto 100 mg/kg, gavage twice daily measured after 7 days; assay type: organism-based; details: in vivo, po, 168 h, time 7 day
[7] = Toxicity in C57BL/6 mouse assessed as signs of intolerance by measuring change in normal motor movements upto 100 mg/kg, gavage twice daily measured after 7 days; assay type: organism-based; details: in vivo, po, 168 h, time 7 day
[8] = Toxicity in C57BL/6 mouse assessed as signs of intolerance by measuring change in arousal upto 100 mg/kg, gavage twice daily measured after 7 days; assay type: organism-based; details: in vivo, po, 168 h, time 7 day
MC-38 = assay: Anticancer activity against mouse MC38 cells subcutaneously implanted in C57BI/6N mouse assessed as tumour growth inhibition at 100 mg/kg, po once daily for 3 weeks; assay type: functional; details: read-out: TGI
[9] = Toxicity in C57BL/6 mouse assessed as maximum tolerated dose administered through gavage twice daily measured after 7 days; details: in vivo, po, time 7 day
[10] = Toxicity in C57BI/6N mouse implanted subcutaneously with MC38 cells assessed as body weight loss at 30 to 100 mg/kg, po once daily for 3 weeks; assay type: organism-based, MC-38; details: in vivo, dose 30-100 mg/kg
[11] = Toxicity in C57BL/6 mouse assessed as signs of intolerance by measuring ease of handling upto 100 mg/kg, gavage twice daily measured after 7 days; assay type: organism-based; details: in vivo, po, 168 h, time 7 day
[12] = AUCextrap in CD-1 mouse at 1 mg/kg, iv; assay type: ADME, organism-based; details: in vivo
[13] = AUCextrap in CD-1 mouse at 30 mg/kg, po; assay type: ADME, organism-based; details: in vivo
[14] = Toxicity in C57BL/6 mouse assessed as signs of intolerance by measuring diarrhoea upto 100 mg/kg, gavage twice daily measured after 7 days; assay type: organism-based; details: in vivo, po, 168 h, time 7 day
[15] = Toxicity in C57BL/6 mouse assessed as signs of intolerance by measuring change in piloerection upto 100 mg/kg, gavage twice daily measured after 7 days; assay type: organism-based; details: in vivo, po, 168 h, time 7 day
[16] = Free drug concentration in mouse at 30 mg/kg, po measured after 2 hrs; assay type: ADME, organism-based; details: in vivo
[17] = Toxicity in C57BL/6 mouse assessed as signs of intolerance by measuring change in intact fur/coat upto 100 mg/kg, gavage twice daily measured after 7 days; assay type: organism-based; details: in vivo, po, 168 h, time 7 day
[18] = Toxicity in C57BL/6 mouse assessed as signs of intolerance by measuring change in posture upto 100 mg/kg, gavage twice daily measured after 7 days; assay type: organism-based; details: in vivo, po, 168 h, time 7 day
[19] = Toxicity in C57BL/6 mouse assessed as signs of intolerance by measuring change in salivation upto 100 mg/kg, gavage twice daily measured after 7 days; assay type: organism-based; details: in vivo, po, 168 h, time 7 day
[20] = Free drug concentration in mouse at 30 mg/kg, po measured after 6 hrs; assay type: ADME, organism-based; details: in vivo
hERG (KCNH2) = hERG (KCNH2) (Homo sapiens, UniProt Q12809); assay: Inhibition of human ERG expressed in HEK cells at 10 uM by automated electrophysiology assay; assay type: cell-based; details: HEK cells that express human ERG
K562 = assay: Anticancer activity against human K562 cells xenografted in SCID mouse assessed as increase in survival at 10 to 30 mg/kg, iv once daily for 5 days; assay type: functional, organism-based; details: dose 10-30 mg/kg, time 5.0 day
[21] = Metabolic stability in mouse liver microsomes assessed as intrinsic clearance; assay type: ADME, Microsome

Chain of hERG (KCNH2) (Q12809 whole entry): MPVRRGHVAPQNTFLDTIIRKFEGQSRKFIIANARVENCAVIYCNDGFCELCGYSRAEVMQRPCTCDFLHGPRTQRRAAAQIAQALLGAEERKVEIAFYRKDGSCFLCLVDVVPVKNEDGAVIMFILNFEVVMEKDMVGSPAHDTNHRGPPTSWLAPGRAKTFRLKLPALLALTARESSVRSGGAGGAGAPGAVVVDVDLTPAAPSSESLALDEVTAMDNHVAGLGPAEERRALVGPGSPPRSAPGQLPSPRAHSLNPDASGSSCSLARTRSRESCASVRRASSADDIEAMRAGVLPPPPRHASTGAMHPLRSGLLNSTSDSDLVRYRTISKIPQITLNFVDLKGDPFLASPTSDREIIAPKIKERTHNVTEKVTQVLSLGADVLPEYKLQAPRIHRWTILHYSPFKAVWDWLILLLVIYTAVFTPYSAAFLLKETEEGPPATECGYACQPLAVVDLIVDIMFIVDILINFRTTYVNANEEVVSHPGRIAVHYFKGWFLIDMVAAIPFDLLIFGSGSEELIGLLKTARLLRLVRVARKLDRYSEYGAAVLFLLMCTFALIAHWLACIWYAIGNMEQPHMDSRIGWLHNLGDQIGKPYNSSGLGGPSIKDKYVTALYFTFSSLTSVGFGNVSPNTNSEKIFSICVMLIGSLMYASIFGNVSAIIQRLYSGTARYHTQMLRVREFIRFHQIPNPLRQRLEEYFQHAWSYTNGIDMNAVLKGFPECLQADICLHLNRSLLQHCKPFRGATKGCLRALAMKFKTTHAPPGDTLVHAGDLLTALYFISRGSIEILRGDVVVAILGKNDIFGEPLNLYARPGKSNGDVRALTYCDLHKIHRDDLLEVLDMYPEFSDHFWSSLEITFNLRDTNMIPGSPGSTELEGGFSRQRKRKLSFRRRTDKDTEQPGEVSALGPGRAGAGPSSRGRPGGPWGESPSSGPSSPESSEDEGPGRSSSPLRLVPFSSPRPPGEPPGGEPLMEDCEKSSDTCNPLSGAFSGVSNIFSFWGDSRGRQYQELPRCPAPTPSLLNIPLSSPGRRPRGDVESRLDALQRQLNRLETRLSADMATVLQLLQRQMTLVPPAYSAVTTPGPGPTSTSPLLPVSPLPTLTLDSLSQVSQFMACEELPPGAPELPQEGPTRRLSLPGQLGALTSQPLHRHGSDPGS

In the case of `Cc1nc(Nc2ncc(C(=O)Nc3c(C)csc3Cl)s2)cc(N2CCN(CCO)CC2)n1`, the Activity [1] was “Non-Toxic”, the “Drug uptake(free)” value [2] was 0.1 nM and the “Drug uptake(free)” value [3] was 3 nM. For the same molecule, the Activity [4] was “Non-Toxic”, the Activity [5] was “Non-Toxic” and the Activity [6] was “Non-Toxic”. For the same molecule, the Activity [7] was “Non-Toxic”, the Activity [8] was “Non-Toxic” and the inhibition in vivo at 100 mg/kg (MC-38) was 38%. For the same molecule, the MTD at 168 h [9] was ≤ 100 mg/kg, the Activity [10] was “Non-Toxic” and the Activity [11] was “Non-Toxic”. For the same molecule, the “%AUCextra” value [12] was 5.81%, the “%AUCextra” value [13] was 5.81% and the Activity [14] was “Non-Toxic”. For the same molecule, the Activity [15] was “Non-Toxic”, the “Drug uptake(free)” value [16] was 32 nM and the Activity [17] was “Non-Toxic”. The Activity [18] was “Non-Toxic” and the Activity [19] was “Non-Toxic”.
In the case of `Cc1nc(Nc2ncc(C(=O)Nc3c(C)csc3Cl)s2)cc(N2CCN(C)CC2)n1`, the “Drug uptake(free)” value [20] was 8 nM and the “Drug uptake(free)” value [16] was 44 nM.
With `Cc1nc(Nc2ncc(C(=O)Nc3c(Cl)csc3C)s2)cc(N2CCN(CCO)CC2)n1` the “Drug uptake(free)” value [20] was 4 nM and the “Drug uptake(free)” value [16] was 80 nM.
For `Cc1nc(Nc2ncc(C(=O)Nc3c(C)cccc3Cl)s2)cc(N2CCN(CCO)CC2)n1.O` [DASATINIB], the inhibition at 10 µM (hERG (KCNH2)) was 36%, the Activity (K562) was “Active” and the Activity [10] was “Non-Toxic”. For the same molecule, the “Drug uptake(free)” value [16] was 30 nM.
For `Cc1nc(Nc2ncc(C(=O)Nc3c(Cl)csc3Cl)s2)cc(N2CCN(CCO)CC2)n1`, the “Drug uptake(free)” value [20] was 5 nM and the “Drug uptake(free)” value [16] was 43 nM.
Molecule `Cc1nc(Nc2ncc(C(=O)Nc3ncccc3C)s2)cc(N2CCN(CCO)CC2)n1` has a CLint [21] of 38 µL/min/mg.
